Assays:
[1] = target: T1, AtPhyB (Arabidopsis thaliana, UniProt P14713); experiment: co-expression with SyHO1 and ΔN_PpPcyA in E. coli, UV-vis absorption, Zn fluorescence, acid denaturation; format: binding; settings: covalent; pH 7.5
T1 construct: gene PHYB; His-tagged, E. coli C41, band about 70 kDa, so a truncated photosensory region
T1 sequence (P14713 1-624 limits assumed): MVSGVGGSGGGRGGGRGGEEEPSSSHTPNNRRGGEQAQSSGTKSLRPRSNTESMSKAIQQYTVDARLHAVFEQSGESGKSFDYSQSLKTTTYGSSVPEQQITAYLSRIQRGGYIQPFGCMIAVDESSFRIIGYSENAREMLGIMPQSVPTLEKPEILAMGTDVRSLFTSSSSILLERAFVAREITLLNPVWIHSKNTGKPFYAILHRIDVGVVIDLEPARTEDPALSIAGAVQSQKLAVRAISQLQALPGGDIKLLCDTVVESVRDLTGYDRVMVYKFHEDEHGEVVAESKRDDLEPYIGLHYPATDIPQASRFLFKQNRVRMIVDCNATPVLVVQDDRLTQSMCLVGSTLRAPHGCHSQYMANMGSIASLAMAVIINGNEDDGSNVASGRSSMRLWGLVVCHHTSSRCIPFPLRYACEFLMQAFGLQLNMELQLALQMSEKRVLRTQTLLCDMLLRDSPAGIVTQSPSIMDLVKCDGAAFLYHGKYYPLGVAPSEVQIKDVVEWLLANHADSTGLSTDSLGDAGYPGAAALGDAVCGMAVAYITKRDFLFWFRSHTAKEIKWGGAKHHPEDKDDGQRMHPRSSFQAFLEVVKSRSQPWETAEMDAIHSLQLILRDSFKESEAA

[2] = target: T2, PpDUC1-N (dualchrome 1 phytochrome region) (Pycnococcus provasolii, UniProt A0A830HT85); experiment: expression in PΦB-producing E. coli, UV-vis absorption; format: binding; settings: covalent; difference spectrum; possibly data of Makita et al. 2021 shown again
T2 construct: gene PPROV_000692100; N-terminal phytochrome region (includes GAF and PHY domains) of the phytochrome-cryptochrome fusion; His-tagged, E. coli C41, about 75 kDa
T2 sequence (A0A830HT85 entry or part of it): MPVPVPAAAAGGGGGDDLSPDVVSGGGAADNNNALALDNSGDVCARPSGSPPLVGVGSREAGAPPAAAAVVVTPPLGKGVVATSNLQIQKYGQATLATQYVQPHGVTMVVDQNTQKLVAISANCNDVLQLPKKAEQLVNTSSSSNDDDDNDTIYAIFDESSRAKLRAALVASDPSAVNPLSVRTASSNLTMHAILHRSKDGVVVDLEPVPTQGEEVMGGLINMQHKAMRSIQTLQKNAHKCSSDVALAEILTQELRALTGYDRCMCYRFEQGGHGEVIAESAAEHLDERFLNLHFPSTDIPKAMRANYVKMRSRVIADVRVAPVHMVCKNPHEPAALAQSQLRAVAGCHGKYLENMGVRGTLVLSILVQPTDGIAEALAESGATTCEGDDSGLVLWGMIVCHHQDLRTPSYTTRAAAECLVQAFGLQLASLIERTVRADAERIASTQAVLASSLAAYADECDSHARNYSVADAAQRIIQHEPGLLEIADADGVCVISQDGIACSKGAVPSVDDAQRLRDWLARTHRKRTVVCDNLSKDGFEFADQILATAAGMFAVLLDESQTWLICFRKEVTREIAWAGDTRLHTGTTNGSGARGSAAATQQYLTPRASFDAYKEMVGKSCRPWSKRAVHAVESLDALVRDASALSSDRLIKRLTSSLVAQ

Structure (SMILES)	co-expression with SyHO1 and ΔN_PpPcyA in E. coli, UV-vis absorption, Zn fluores [1]	expression in PΦB-producing E. coli, UV-vis absorption [2]
CC=C1C(=Cc2[nH]c(C=C3N=C(C=C4NC(=O)C(CC)=C4C)C(C)=C3CCC(=O)O)c(CCC(=O)O)c2C)NC(=O)C1C (centres unmarked) [PCB]	difference spectrum of AtPhyB coexpressed with ΔN_PpPcyA was nearly identical to that of PCB-binding AtPhyB	–
C=CC1=C(C)C(=CC2=NC(=Cc3[nH]c(C=C4NC(=O)C(C)C4=CC)c(C)c3CCC(=O)O)C(CCC(=O)O)=C2C)NC1=O (centres unmarked) [PΦB]	–	difference spectrum of PpDUC1-N purified from PCB-producing and PΦB-producing E. coli

Source: paper PMC11879098, “Phycocyanobilin Binding and Specific Amino Acid Residues Near The Chromophore Contribute To Orange Light Perception By The Dualchrome Phytochrome Region” (Plant and Cell Physiology, 2024)
